Patent US20120316138A1, “PPAR-SPARING THIAZOLIDINEDIONES AND COMBINATIONS FOR THE TREATMENT OF OBESITY AND OTHER METABOLIC DISEASES” (METABOLIC SOLUTIONS DEVELOPMENT COMPANY, LLC, priority 2009, published 2012)

Tests used:
[1] = system: brown adipose tissue precursor cells (UCP1); assay: BAT differentiation: UCP1 protein by Western blot in BAT precursor cells; type: cell-based, mice; settings: 7 days
Description: Precursors of BAT are isolated from the interscapular adipose pad of either normal or diabetic mice and cultured in vitro as described below based on the modifications recited in Petrovic N, Shabalina I G, Timmons J A, Cannon B, Nedergaard J. Am. J. Physiol. Endocrinol. Metab. 295:E287-E296, 2008, hereby incorporated by reference.
The brown fat pads are pooled and minced, digested for 45 minutes in isolation buffer containing 0.15% (wt/vol) collagenase. The cell suspension is filtered through a 100 un nylon filter and centrifuged at 200×g for 5 minutes. The pellet containing the preadipocytes is resuspended in 1.2 ml/animal of DMEM containing 10% FBS, 10 mM HEPES, 25 μg/ml sodium ascorbate, 100 U/ml penicillin, and 100 μg/ml streptomycin. The resuspended preadipocytes are distributed into 6 well plates and grown at 37° C. in an atmosphere of 10% CO2 in air with 80% humidity. The medium is changed on the first day and then every second day until confluent.
Cells are then treated with the compounds, compound salts, or co-crystals thereof being assayed for BAT differentiation. This treatment can occur simultaneously with, after, or before strategies to increase intracellular cyclic nucleotides. The development of the BAT phenotype is assessed by direct measure of the uncoupling protein 1 (UCP1), which is emblematic of brown adipose cells.
Following treatment of the cells, the growth medium is aspirated, rinsed with PBS, and lysed with KHM buffer containing 1% Igepal CA-630, and a protease inhibitor cocktail. The lysate is centrifuged at 8,000×g for 5 minutes (4° C.), the supernatant containing the cell lysate is collected and total protein analyzed using the BCA method. 20 μg/lane of cell lysate is run on 10-20% Tris glycine gels under reducing conditions and the proteins transferred to PVDF membranes. Western blotting is conducted using UCP1 polyclonal 1° antibody, an HRP conjugated 2° antibody, and imaged using enhanced chemiluminescence reagents and imaging film. Densitometry is conducted on the scanned films using ImageJ software and analyzed using GraphPad Prism software.

PGC-1α = assay: Expression of PGC-1α mRNA in precursor BAT cells with norepinephrine (quantitative PCR); type: cell-based, mice; settings: for PGC-1α message (mRNA): 3 μM compound for seven days, then 1 μM norepinephrine for 2 hours
Description: Another example of the ability of augmented signaling between cyclic nucleotides and compounds of Formula I is shown by the effect on expression of PGC-1α, a known regulator of mitochondrial biogenesis. Increased numbers of mitochondria are predictive of utility for the reduction of body weight.
Precursor BAT cells were isolated as described above and treated with or without 3 μM compounds: 1.] Compound A: 5-(4-(2-(5-ethylpyridin-2-yl)-2-oxoethoxy)benzyl)-1,3-thiazolidine-2,4-dione; 2.] Compound F: 5-((4-(2R)-2-(5-ethylpyridin-2-yl)-2-hydroxyethoxyl)benzyl)-1,3-thiazolidine-2,4-dione; or 3.] Compound G: 5-(4-(2-(3-methoxyphenyl)-2-oxoethoxy)benzyl)-1,3-thiazolidine-2,4-dione for seven days followed by treatment with 1 μM norepinephrine for 2 hours. Total RNA was isolated from the cells and the RNA message (mRNA) for PGC-1α was measured by quantitative polymerase chain reactions.

[2] = AUC of compound related materials after oral dosing of Compound G forms; type: in vivo; settings: cynomolgus monkeys, 250 mg free acid equivalents, formulated tablets
Description: Referring to FIG. 9, the area under the curve (AUC) of compound related materials was compared following dosing of 250 mg of Compound G as powder in capsules of free acid (PIC), formulated tablets of micronized free acid, or formulated tablets of the Na or K salt of […] given at the same free acid equivalents. (N=4 cynomolgus monkeys). The formulated, compressed tablet also contained in each case approximately 40.5% lactose, 16.8% microcrystalline cellulose, 1.9% Croscarmellose sodium, 0.5% colloidal silicon dioxide, and 0.9% magnesium stearate.

[3] = Bioavailability of sodium salt of Compound A, oral capsule versus iv injection; type: in vivo; settings: male cynomolgus monkeys, oral gavage, 90 mg free base equivalents in capsules, absolute availability versus iv
Description: The monkeys fasted overnight and were dosed by oral gavage washed down with 10 ml tap water. Blood samples were taken at 0.25, 0.5, 1, 2, 3, 4, 6, 9, 12, 24, and 48 hours after a single dosage was administered and assayed for drug related materials with a LCMS assay using an internal standard. 90 mg of drug was put in 00 gelatin capsules containing 90 mg of free base equivalents. This was compared to an iv injection of 2 ml/kg and 45 mg of free base solution in 50% hydroxypropyl b-cyclodextran. The absolute availability versus an iv injection was determined for both parent compound and major metabolite.

diabetic KKAy mouse = assay: Blood glucose lowering in the diabetic KKAy mouse; type: in vivo; settings: diabetic KKAy mice, gavage once daily, glucose measured after 4 daily doses
Description: In these experiments, free base or sodium salt was given to diabetic KKAy mice (N=6) and blood glucose was measured after 4 days of daily treatment at the doses indicated. KKAy mice, 8-12 weeks of age, were given the doses of the compounds according to the dosages on the X axis of FIG. 10. The compounds were given by gavage once daily at […]. On the fifth day (after 4 daily doses at the levels show) a blood sample was taken to measure plasma glucose.

CCc1ccc(C(=O)COc2ccc(CC3SC(=O)NC3=O)cc2)nc1 (centres unmarked) [Compound A, 5-{4-[2-(5-ethylpyridin-2-yl)-2-oxoethoxy]benzyl}-1,3-thiazolidine-2,4-dione]
amount of UCP1 (Western blot) ([1]; 0.1 to 10 μM): dose-dependent increase
PGC-1α message (mRNA) (PGC-1α): an increase in PGC-1α message was observed

COc1cccc([C@H](F)COc2ccc(CC3SC(=O)NC3=O)cc2)c1 (stereo partly drawn) [Compound B, 5-(4-((S)-2-fluoro-2-(3-methoxyphenyl)ethoxy)benzyl)thiazolidine-2,4-dione]
amount of UCP1 (Western blot) ([1]; 0.1 to 3 μM): dose-dependent increase

COc1cccc([C@@H](F)COc2ccc(CC3SC(=O)NC3=O)cc2)c1 (stereo partly drawn) [Compound C, 5-(4-((R)-2-fluoro-2-(3-methoxyphenyl)ethoxy)benzyl)thiazolidine-2,4-dione]
amount of UCP1 (Western blot) ([1]; 0.1 to 3 μM): dose-dependent increase

CCc1ccc([C@H](F)COc2ccc(CC3SC(=O)NC3=O)cc2)nc1 (stereo partly drawn) [Compound D, 5-(4-((S)-2-(5-ethylpyridin-2-yl)-2-fluoroethoxy)benzyl)thiazolidine-2,4-dione]
amount of UCP1 (Western blot) ([1]; 3 to 10 μM): dose-dependent increase

CCc1ccc([C@@H](F)COc2ccc(CC3SC(=O)NC3=O)cc2)nc1 (stereo partly drawn) [Compound E, 5-(4-((R)-2-(5-ethylpyridin-2-yl)-2-fluoroethoxy)benzyl)thiazolidine-2,4-dione]
amount of UCP1 (Western blot) ([1]; 3 to 10 μM): dose-dependent increase

CCc1ccc([C@@H](O)COc2ccc(CC3SC(=O)NC3=O)cc2)nc1 (stereo partly drawn) [Compound F, 5-((4-(2R)-2-(5-ethylpyridin-2-yl)-2-hydroxyethoxyl)benzyl)-1,3-thiazolidine-2,4-dione]
PGC-1α message (mRNA) (PGC-1α): an increase in PGC-1α message was observed

COc1cccc(C(=O)COc2ccc(CC3SC(=O)NC3=O)cc2)c1 (centres unmarked) [Compound G, 5-{4-[2-(3-methoxyphenyl)-2-oxoethoxy]benzyl}-1,3-thiazolidine-2,4-dione]
PGC-1α message (mRNA) (PGC-1α): an increase in PGC-1α message was observed

NC[C@H](O)c1ccc(O)c(O)c1 [norepinephrine, reference compound]
PGC-1α mRNA (PGC-1α; norepinephrine alone, 1 μM for 2 hours, absence of compound (control)): did not produce an increase

COc1cccc(C(=O)COc2ccc(CC3SC(=O)[N-]C3=O)cc2)c1.[K+] (centres unmarked) [potassium salt of Compound G, Potassium 5-{4-[2-(3-methoxyphenyl)-2-oxoethoxy]benzyl}-2,4-dioxo-1,3-thiazolidin-3-ide]
bioavailability (AUC of compound related materials) versus free acid counterparts [2]: significantly higher bioavailability

CCc1ccc(C(=O)COc2ccc(CC3SC(=O)[N-]C3=O)cc2)nc1.[Na+] (centres unmarked) [sodium salt of Compound A, Sodium 5-{4-[2-(5-ethylpyridin-2-yl)-2-oxoethoxy]benztl}-2,4-dioxo-1,3-thiazolidin-3-ide]
bioavailability of major metabolite versus free base counterpart [3]: significantly higher bioavailability
bioavailability of parent compound versus free base counterpart [3]: significantly higher bioavailability
lowering blood glucose (diabetic KKAy mouse): excellent dose response

COc1cccc(C(=O)COc2ccc(CC3SC(=O)[N-]C3=O)cc2)c1.[Na+] (centres unmarked) [sodium salt of Compound G, Sodium 5-{4-[2-(3-methoxyphenyl)-2-oxoethoxy]benztl}-2,4-dioxo-1,3-thiazolidin-3-ide]
bioavailability (AUC of compound related materials) versus free acid counterparts [2]: significantly higher bioavailability
